Experimental data published in paper doi:10.1101/362830v1 (biorxiv, 2018).

Experiments:
Format in all cases: biochemical
D14 [1] = target: T1, D14 (Oryza sativa, UniProt Q10QA5); assay: fluorogenic hydrolysis, ex […] nm, em […] nm; conditions: read-out: Km^YLG; 100 mM PBS pH 7.3, 0.1% DMSO, 30 °C; no inhibitor
T1 sequence (Q10QA5 54-318): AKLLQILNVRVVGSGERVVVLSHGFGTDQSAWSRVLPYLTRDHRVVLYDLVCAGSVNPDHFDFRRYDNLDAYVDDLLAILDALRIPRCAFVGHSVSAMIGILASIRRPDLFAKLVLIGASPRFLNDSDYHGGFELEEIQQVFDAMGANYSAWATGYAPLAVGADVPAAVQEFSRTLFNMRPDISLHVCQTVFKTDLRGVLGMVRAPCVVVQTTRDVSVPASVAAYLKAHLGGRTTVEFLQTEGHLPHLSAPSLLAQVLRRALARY

D14 [2] = target: T1, D14; assay: inhibition of YLG hydrolysis, fluorescence
ShHTL7 = target: T2, ShHTL7 (Striga hermonthica, UniProt A0A0M3PNA2); assay: inhibition of YLG hydrolysis, fluorescence
T2 sequence (A0A0M3PNA2 1-271): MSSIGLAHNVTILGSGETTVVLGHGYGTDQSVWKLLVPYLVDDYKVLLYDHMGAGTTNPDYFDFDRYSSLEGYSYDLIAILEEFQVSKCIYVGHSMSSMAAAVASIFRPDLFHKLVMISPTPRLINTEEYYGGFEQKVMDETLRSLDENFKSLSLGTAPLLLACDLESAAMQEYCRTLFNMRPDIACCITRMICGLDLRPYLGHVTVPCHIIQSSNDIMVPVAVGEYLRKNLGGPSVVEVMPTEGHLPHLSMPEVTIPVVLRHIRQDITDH

Row | SMILES | Km (D14 [1]) | IC50 (D14 [2]) | IC50 (ShHTL7)
1 | CCOC(=O)c1ccccc1-c1c2ccc(=O)cc-2oc2cc(OC3C=C(C)C(=O)O3)ccc12 (centres unmarked) [Yoshimulactone Green] | 1.84 µM | – | –
2 | CC1=C[C@@H](O/C=C2/C(=O)O[C@@H]3c4ccccc4C[C@H]23)OC1=O [GR24] | – | 5.8 µM | 0.15 µM
3 | O=C(N1CCc2ccccc21)n1nccn1 [compound 26, indolin-1-yl(2H-1,2,3-triazol-2-yl)methanone] | – | 7.9 µM | –
4 | O=C(N1CCc2ccccc21)n1ccnn1 [compound 26, indolin-1-yl(1H-1,2,3-triazol-1-yl)methanone] | – | 1.8 µM | –
